Format in all cases: biochemical
Common to all, as to details: ADP-Glo SIK kinase assay
In general terms: ADP-Glo first removes unused ATP, then detects ADP through luciferase.

The target of experiment [1] is T1, SIK2 (Homo sapiens, UniProt Q9H0K1).
T1 construct: purchased ThermoFisher Scientific PV4792
The experiment in a line: ADP-Glo kinase assay, SIK2. The protocol:
(§1) The ADP-Glo™ kinase assay is a luminescent technology assay which measures the ADP formed from a kinase reaction. […] In a second step the kinase reactions are terminated and all the remaining ATP is depleted. In a final step the ADP is converted into ATP and this newly synthesized ATP is measured by using a luciferase/luciferin reaction. The generated light is measured using an Envision plate reader, wherein the luminescent signal obtained positively correlates with the kinase activity.
(§2) 1% DMSO and 10 μM staurosporine final concentrations are used as negative and positive controls.
(§3) 2 μL enzyme-substrate mixture is added to the assay plates.
(§4) The reaction is started by adding 2 μL diluted ATP on the assay plates. Plates are centrifuged for a few seconds at 1000 rpm and gently shaken for 2 min followed by an incubation at RT for 120 min.
(§5) The reactions are stopped and the unconsumed ATP is depleted by adding 5 μL ADP-Glo Reagent (Promega, Cat #V912B) to the reaction. The plates are centrifuged for a few seconds at 1000 rpm and incubated at RT for 40 min (ATP depletion).
(§6) The ADP is converted to ATP and luciferase and luciferin is introduced to detect ATP by adding 10 μL Kinase Detection Reagent (Promega, Cat #V913B+V914B) to the reaction. The plates are centrifuged for a few seconds at 1000 rpm and incubated at RT for 30 min (ADP detection).
(§7) Luminescence is measured on an Envision plate reader (PerkinElmer Inc.).

The target in experiment [2] is T2, SIK1 (Homo sapiens, UniProt P57059).
T2 construct: purchased Carna Biosciences 02-131
The experiment in a line: ADP-Glo kinase assay, SIK1. The protocol:
as §1, §2, §3, §4, §5, §6, §7

In experiment [3] the target is T3, SIK3 (Homo sapiens, UniProt Q9Y2K2).
T3 construct: purchased SignalChem S12-11G-100
The experiment in a line: ADP-Glo kinase assay, SIK3. How it is done:
as §1, §2, §3, §4, §5, §6, §7

Some results are limits rather than exact numbers.

T3 sequence (Q9Y2K2 whole entry): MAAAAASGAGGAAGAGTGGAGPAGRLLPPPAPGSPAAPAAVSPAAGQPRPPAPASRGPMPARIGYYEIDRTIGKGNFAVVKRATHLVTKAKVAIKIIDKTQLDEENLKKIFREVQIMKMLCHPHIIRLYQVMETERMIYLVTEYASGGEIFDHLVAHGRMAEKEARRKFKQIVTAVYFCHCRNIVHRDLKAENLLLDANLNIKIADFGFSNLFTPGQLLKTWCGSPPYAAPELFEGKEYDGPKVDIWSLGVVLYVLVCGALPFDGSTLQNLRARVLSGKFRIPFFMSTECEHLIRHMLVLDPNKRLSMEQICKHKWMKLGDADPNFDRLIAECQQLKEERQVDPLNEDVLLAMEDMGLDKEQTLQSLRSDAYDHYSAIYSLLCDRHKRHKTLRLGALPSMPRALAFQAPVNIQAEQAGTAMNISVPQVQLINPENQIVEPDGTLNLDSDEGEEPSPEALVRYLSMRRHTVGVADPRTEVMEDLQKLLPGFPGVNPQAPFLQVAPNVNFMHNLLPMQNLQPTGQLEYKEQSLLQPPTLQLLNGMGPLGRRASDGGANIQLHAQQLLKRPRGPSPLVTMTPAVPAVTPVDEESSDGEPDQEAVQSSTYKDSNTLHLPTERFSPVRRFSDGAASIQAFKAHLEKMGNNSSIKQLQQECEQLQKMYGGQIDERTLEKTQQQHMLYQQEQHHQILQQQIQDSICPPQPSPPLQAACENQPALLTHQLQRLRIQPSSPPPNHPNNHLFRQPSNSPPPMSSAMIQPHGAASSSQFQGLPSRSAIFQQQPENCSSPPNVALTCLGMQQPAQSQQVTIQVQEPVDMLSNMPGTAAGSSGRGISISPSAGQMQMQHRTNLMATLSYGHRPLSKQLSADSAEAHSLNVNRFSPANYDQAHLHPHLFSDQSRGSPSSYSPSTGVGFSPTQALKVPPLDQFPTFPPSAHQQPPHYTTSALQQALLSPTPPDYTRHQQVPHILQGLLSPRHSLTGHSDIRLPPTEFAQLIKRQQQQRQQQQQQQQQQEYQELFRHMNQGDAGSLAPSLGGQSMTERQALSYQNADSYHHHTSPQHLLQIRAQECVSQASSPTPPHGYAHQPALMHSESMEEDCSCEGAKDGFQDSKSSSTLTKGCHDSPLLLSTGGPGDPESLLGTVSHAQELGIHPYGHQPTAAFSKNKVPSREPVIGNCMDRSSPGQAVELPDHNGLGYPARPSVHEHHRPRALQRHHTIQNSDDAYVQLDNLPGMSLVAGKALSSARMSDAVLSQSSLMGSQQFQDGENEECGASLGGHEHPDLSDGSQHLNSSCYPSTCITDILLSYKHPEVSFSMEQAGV
T1 sequence (Q9H0K1 whole entry): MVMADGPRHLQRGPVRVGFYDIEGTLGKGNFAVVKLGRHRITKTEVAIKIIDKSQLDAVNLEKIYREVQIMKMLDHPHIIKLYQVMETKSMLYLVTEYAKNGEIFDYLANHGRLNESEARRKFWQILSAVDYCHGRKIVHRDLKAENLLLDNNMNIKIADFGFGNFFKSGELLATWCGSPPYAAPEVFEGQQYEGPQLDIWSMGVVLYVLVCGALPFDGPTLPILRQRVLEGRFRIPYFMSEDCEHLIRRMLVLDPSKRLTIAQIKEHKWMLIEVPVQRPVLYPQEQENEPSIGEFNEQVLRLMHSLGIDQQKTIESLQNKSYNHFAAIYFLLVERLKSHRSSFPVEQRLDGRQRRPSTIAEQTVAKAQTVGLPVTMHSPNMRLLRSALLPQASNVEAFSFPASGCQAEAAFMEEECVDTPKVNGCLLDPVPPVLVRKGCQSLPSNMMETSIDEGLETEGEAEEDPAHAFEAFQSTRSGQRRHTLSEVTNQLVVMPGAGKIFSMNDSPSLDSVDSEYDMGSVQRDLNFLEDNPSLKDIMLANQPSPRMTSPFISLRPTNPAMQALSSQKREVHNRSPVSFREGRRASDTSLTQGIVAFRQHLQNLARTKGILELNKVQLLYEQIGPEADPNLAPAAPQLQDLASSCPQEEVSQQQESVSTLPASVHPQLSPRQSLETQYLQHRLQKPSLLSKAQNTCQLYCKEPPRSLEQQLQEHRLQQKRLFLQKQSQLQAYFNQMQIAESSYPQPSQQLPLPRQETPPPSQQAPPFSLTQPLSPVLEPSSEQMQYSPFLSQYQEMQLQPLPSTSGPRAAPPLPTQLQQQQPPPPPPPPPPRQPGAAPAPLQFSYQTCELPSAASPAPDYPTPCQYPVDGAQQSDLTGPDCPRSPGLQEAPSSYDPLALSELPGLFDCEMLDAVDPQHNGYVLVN
T2 sequence (P57059 whole entry): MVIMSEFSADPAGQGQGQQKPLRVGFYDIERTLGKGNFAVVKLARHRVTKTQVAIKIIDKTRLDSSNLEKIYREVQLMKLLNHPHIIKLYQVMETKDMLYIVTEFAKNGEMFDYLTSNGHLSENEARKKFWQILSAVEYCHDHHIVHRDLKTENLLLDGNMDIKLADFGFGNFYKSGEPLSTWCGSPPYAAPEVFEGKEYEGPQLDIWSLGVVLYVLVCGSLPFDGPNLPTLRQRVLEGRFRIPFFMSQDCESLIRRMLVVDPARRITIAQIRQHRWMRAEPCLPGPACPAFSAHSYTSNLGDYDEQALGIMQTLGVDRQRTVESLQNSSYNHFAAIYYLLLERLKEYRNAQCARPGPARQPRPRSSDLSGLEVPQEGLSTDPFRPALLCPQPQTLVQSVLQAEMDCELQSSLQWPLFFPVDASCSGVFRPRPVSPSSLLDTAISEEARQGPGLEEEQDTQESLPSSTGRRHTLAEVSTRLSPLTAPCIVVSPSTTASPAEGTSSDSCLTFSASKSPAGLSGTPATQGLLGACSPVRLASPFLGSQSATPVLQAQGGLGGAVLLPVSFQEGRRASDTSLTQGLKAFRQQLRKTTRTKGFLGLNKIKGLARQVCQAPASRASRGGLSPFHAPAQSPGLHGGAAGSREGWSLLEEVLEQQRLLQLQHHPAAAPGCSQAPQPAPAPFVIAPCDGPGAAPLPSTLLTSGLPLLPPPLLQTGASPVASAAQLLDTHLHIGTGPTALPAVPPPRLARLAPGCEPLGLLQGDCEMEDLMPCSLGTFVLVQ

As usually defined, the IC50 is the point on the concentration scale where inhibition reaches its midpoint. The low end stands for greater potency, the high end for weaker potency. With `COc1cc(-c2cnc3cc(OCCN(C)c4ccccc4)ccn23)cc(OC(F)F)c1C(=O)NC1CC1` [Cpd 184, N-cyclopropyl-2-(difluoromethoxy)-6-methoxy-4-[7-[2-(N-methylanilino)ethoxy]imidazo[1,2-a]pyridin-3-yl]benzamide], the IC50 in experiment [1], in experiment [2] and in experiment [3] was 0.01 to 10 nM each time.

As to `COc1cc(-c2cnc3cc(OCC4(F)CN(C(=O)OC(C)(C)C)C4)ccn23)cc(OC(F)F)c1C(=O)NC1CC1` [Cpd 187, tert-butyl 3-[[3-[4-(cyclopropylcarbamoyl)-3-(difluoromethoxy)-5-methoxy-phenyl]imidazo[1,2-a]pyridin-7-yl]oxymethyl]-3-fluoro-azetidine-1-carboxylate], the IC50 in experiment [1] was 0.01 to 10 nM; in experiment [2], 10 to 100 nM; in experiment [3], 0.01 to 10 nM.

For `COc1cc(-c2cnc3cc(OCC4(C)CN(C(=O)OC(C)(C)C)C4)ccn23)cc(OC(F)F)c1C(=O)NC1CC1` [Cpd 188, tert-butyl 3-[[3-[4-(cyclopropylcarbamoyl)-3-(difluoromethoxy)-5-methoxy-phenyl]imidazo[1,2-a]pyridin-7-yl]oxymethyl]-3-methyl-azetidine-1-carboxylate], the concentration for half-maximal inhibition (IC50) fell in the range of 0.01 to 10 nM in experiment [1], 10 to 100 nM in experiment [2] and 0.01 to 10 nM in experiment [3].

For the molecule `COc1cc(-c2cnc3cc(OCCN4CCOCC4)ccn23)cc2ccn(CC(F)(F)F)c(=O)c12` [Cpd 221, 8-methoxy-6-[7-(2-morpholinoethoxy)imidazo [1,2-a]pyridin-3-yl]-2-(2,2,2-trifluoroethyl) isoquinolin-1-one], the half-inhibitory concentration (IC50) in experiment [1] was 10 to 100 nM; in experiment [2], greater than 500 nM; in experiment [3] it was 10 to 100 nM.

On to `O=C1c2c(cc(-c3cnc4cc(OCCN5CCOCC5)ccn34)cc2OC(F)F)CCN1CC(F)F` [Cpd 247, 2-(2,2-difluoroethyl)-8-(difluoromethoxy)-6-[7-(2-morpholinoethoxy)imidazo[1,2-a]pyridin-3-yl]-3,4-dihydroisoquinolin-1-one], for which the figures for the IC50 in experiment [1], in experiment [2] and in experiment [3] were 0.01 to 10 nM, 100 to 500 nM and 0.01 to 10 nM, respectively.

Take `COc1cc(-c2cnc3cc(OCC4(C)CNC4)ccn23)cc2c1C(=O)N(CC(F)(F)F)CC2` [Cpd 251, 8-methoxy-6-[7-[(3-methylazetidin-3-yl)methoxy]imidazo [1,2-a]pyridin-3-yl]-2-(2,2,2-trifluoroethyl)-3,4-dihydroisoquinolin-1-one]: the IC50 in experiment [1] lay within 10 to 100 nM; in experiment [2], 100 to 500 nM; in experiment [3], 0.01 to 10 nM.

Turning to `COc1cc(-c2cnc3cc(OCC4(C)CN(C)C4)ccn23)cc2c1C(=O)N(CC(F)(F)F)CC2` [Cpd 253, 6-[7-[(1,3-dimethylazetidin-3-yl)methoxy]imidazo[1,2-a]pyridin-3-yl]-8-methoxy-2-(2,2,2-trifluoroethyl)-3,4-dihydroisoquinolin-1-one], the values for the 50% inhibitory concentration (IC50) in experiment [1], in experiment [2] and in experiment [3] were 10 to 100 nM, greater than 500 nM and 0.01 to 10 nM, respectively.

For `COc1cc(-c2cnc3cc(OC4(C#N)CCCC4)ccn23)cc(OC(F)F)c1C(=O)NC1CC1` [Cpd 255, 4-[7-(1-cyanocyclopentoxy)imidazo[1,2-a]pyridin-3-yl]-N-cyclopropyl-2-(difluoromethoxy)-6-methoxy-benzamide], the IC50 in experiment [1] is 100 to 500 nM; in experiment [2], greater than 500 nM; in experiment [3] it was 10 to 100 nM.

On to `COc1ccn2c(-c3cc4c(c(OC)c3)C(=O)N(CC(F)(F)F)CC4)cnc2c1` [Cpd 256, 8-methoxy-6-(7-methoxyimidazo[1,2-a]pyridin-3-yl)-2-(2,2,2-trifluoroethyl)-3,4-dihydroisoquinolin-1-one], for which the half-inhibitory concentration (IC50) in experiment [1] lay within 10 to 100 nM; in experiment [2] it was 100 to 500 nM; in experiment [3] it was 10 to 100 nM.

As for `COc1cc(-c2cnc3cc(OCCO)ccn23)cc2c1C(=O)N(CC(F)(F)F)CC2` [Cpd 258, 6-[7-(2-hydroxyethoxy)imidazo [1,2-a]pyridin-3-yl]-8-methoxy-2-(2,2,2-trifluoroethyl)-3,4-dihydroisoquinolin-1-one], the results for the IC50 in experiment [1], in experiment [2] and in experiment [3] were 10 to 100 nM, 100 to 500 nM and 0.01 to 10 nM, respectively.

Take `COCC(C)(C)Oc1ccn2c(-c3cc(OC)c(C(=O)NC4CC4)c(OC(F)F)c3)cnc2c1` [Cpd 260, N-cyclopropyl-2-(difluoromethoxy)-6-methoxy-4-[7-(2-methoxy-1,1-dimethyl-ethoxy)imidazo[1,2-a]pyridin-3-yl]benzamide]: the concentration for half-maximal inhibition (IC50) in experiment [1] was greater than 500 nM; in experiment [2], greater than 500 nM; in experiment [3], 10 to 100 nM.

`COc1cc(-c2cnc3cc(OC(C)(C)C#N)ccn23)cc(OC(F)F)c1C(=O)NC1CC1` [Cpd 263, 4-[7-(1-cyano-1-methyl-ethoxy)imidazo[1,2-a]pyridin-3-yl]-N-cyclopropyl-2-(difluoromethoxy)-6-methoxy-benzamide]: the IC50 is greater than 500 nM in experiment [1], greater than 500 nM in experiment [2] and 10 to 100 nM in experiment [3].

On to `CCOc1ccn2c(-c3cc4c(c(OC)c3)C(=O)N(CC(F)(F)F)CC4)cnc2c1` [Cpd 264, 6-(7-ethoxyimidazo[1,2-a]pyridin-3-yl)-8-methoxy-2-(2,2,2-trifluoroethyl)-3,4-dihydroisoquinolin-1-one], for which the IC50 in experiment [1] is 10 to 100 nM; in experiment [2], 100 to 500 nM; in experiment [3], 0.01 to 10 nM.

In the case of `O=C1c2ncc(-c3cnc4cc(OCCN5CCOCC5)ccn34)cc2CN1CC(F)(F)F` [Cpd 266, 3-[7-(2-morpholinoethoxy)imidazo [1,2-a]pyridin-3-yl]-6-(2,2,2-trifluoroethyl)-5H-pyrrolo[3,4-b]pyridin-7-one], the IC50 in experiment [1], in experiment [2] and in experiment [3] was greater than 500 nM each time.

In the case of `COc1cc(-c2cnc3cc(OCCCOC(C)=O)ccn23)cc(OC(F)F)c1C(=O)NC1CC1` [Cpd 282, 3-[3-[4-(cyclopropylcarbamoyl)-3-(difluoromethoxy)-5-methoxy-phenyl]imidazo[1,2-a]pyridin-7-yl]oxypropyl acetate], the figures for the IC50 in experiment [1], in experiment [2] and in experiment [3] were 0.01 to 10 nM, 10 to 100 nM and 0.01 to 10 nM, respectively.

For `COc1cc(-c2cnc3cc(OC[C@H]4CCNC4)ccn23)cc(OC(F)F)c1C(=O)NC1CC1` [Cpd 314, N-cyclopropyl-2-(difluoromethoxy)-6-methoxy-4-[7-[[(3S)-pyrrolidin-3-yl]methoxy]imidazo[1,2-a]pyridin-3-yl]benzamide], the IC50 lay within 0.01 to 10 nM in experiment [1], 10 to 100 nM in experiment [2] and 0.01 to 10 nM in experiment [3].

With `COc1cc(-c2cnc3cc(OCCCOS(C)(=O)=O)ccn23)cc(OC(F)F)c1C(=O)NC1CC1` [Cpd 333, 3-[3-[4-(cyclopropylcarbamoyl)-3-(difluoromethoxy)-5-methoxy-phenyl]imidazo[1,2-a]pyridin-7-yl]oxypropyl methanesulfonate], the figures for the half-inhibitory concentration (IC50) in experiment [1], in experiment [2] and in experiment [3] were 0.01 to 10 nM, 10 to 100 nM and 0.01 to 10 nM, respectively.

Take `COc1cc(-c2cnc3cc(OC[C@H]4CCCN(CCO)C4)ccn23)cc(OC(F)F)c1C(=O)NC1CC1` [Cpd 340, N-cyclopropyl-2-(difluoromethoxy)-4-[7-[[(3S)-1-(2-hydroxyethyl)-3-piperidyl]methoxy]imidazo [1,2-a]pyridin-3-yl]-6-methoxy-benzamide]: the half-inhibitory concentration (IC50) was 0.01 to 10 nM in experiment [1], 10 to 100 nM in experiment [2] and 0.01 to 10 nM in experiment [3].

For the molecule `COc1cc(-c2cnc3cc(OC[C@H]4CCN(CCO)C4)ccn23)cc(OC(F)F)c1C(=O)NC1CC1` [Cpd 341, N-cyclopropyl-2-(difluoromethoxy)-4-[7-[[(3S)-1-(2-hydroxyethyl)pyrrolidin-3-yl]methoxy]imidazo[1,2-a]pyridin-3-yl]-6-methoxy-benzamide], the 50% inhibitory concentration (IC50) in experiment [1] fell in the range of 0.01 to 10 nM; in experiment [2], 10 to 100 nM; in experiment [3], 0.01 to 10 nM.

On to `COc1cc(-c2cnc3cc(OCC4CN(CC(C)(C)O)C4)ccn23)cc(OC(F)F)c1C(=O)NC1CC1` [Cpd 342, N-cyclopropyl-2-(difluoromethoxy)-4-[7-[[1-(2-hydroxy-2-methyl-propyl)azetidin-3-yl]methoxy]imidazo[1,2-a]pyridin-3-yl]-6-methoxy-benzamide], for which the IC50 in experiment [1] was 0.01 to 10 nM; in experiment [2], 10 to 100 nM; in experiment [3], 0.01 to 10 nM.

Regarding `COc1cc(-c2cnc3cc(OCC4CN(CCO)C4)ccn23)cc(OC(F)F)c1C(=O)NC1CC1` [Cpd 343, N-cyclopropyl-2-(difluoromethoxy)-4-[7-[[1-(2-hydroxyethyl)azetidin-3-yl]methoxy]imidazo[1,2-a]pyridin-3-yl]-6-methoxy-benzamide], the 50% inhibitory concentration (IC50) lay in the range of 0.01 to 10 nM in experiment [1], 10 to 100 nM in experiment [2] and 0.01 to 10 nM in experiment [3].

`COc1cc(-c2cnc3cc(OCCCN4CCCCC4)ccn23)cc(OC(F)F)c1C(=O)N1CC(C#N)C1` [Cpd 357, 1-[2-(difluoromethoxy)-6-methoxy-4-[7-[3-(1-piperidyl)propoxy]imidazo[1,2-a]pyridin-3-yl]benzoyl]azetidine-3-carbonitrile]: the IC50 in experiment [1] lay within 0.01 to 10 nM; in experiment [2], 10 to 100 nM; in experiment [3], 0.01 to 10 nM.

Values taken from patent publication US12264156B2, “Compounds and pharmaceutical compositions thereof for the treatment of diseases” (GALAPAGOS NV, priority 2018, dated 2025).
